Molecules are shown by their SMILES. A value given as a limit tells only on which side of the number the result lay.

T1 sequence (Q92918 whole entry): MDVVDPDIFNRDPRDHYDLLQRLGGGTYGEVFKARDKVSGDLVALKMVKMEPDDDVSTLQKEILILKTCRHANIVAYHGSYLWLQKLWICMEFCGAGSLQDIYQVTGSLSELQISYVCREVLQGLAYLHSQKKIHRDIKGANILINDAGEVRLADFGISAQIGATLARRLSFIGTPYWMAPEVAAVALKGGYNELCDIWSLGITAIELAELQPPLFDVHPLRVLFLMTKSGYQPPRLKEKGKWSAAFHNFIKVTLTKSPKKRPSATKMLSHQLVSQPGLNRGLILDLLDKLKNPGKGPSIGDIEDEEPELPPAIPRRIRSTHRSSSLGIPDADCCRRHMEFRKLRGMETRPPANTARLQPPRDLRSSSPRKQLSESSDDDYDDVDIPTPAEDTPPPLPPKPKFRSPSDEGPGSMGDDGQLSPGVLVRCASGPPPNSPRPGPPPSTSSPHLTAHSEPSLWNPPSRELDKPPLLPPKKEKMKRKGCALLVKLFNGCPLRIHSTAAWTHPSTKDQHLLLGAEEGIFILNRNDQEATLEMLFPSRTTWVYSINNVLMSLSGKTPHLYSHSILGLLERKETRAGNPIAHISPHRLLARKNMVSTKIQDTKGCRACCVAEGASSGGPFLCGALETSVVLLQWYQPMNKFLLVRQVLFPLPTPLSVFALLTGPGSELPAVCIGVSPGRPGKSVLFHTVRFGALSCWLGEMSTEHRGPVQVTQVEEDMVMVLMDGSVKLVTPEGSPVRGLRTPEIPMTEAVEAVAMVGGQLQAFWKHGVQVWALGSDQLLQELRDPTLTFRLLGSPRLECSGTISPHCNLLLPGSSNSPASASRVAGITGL

The experiment addresses T1, HPK1 (Homo sapiens, UniProt Q92918).
T1 construct: purchased Invitrogen
Kind of experiment: HPK1 biochemical enzyme assay (microfluidic mobility shift assay). As to conditions: 1000 uM (1 mM) ATP; Caliper mobility shift; 1.5 nM HPK1; 30 min preincubation; read-out: HPK1 1000UMATP caliper IC50. The protocol: Example 33. HPK1 Biochemical Enzyme Assay
HPK1 biochemical enzyme assay: HPK1 enzyme inhibition was measured using a microfluidic mobility shift assay. Reactions were performed in a 384-well plate, containing 1.5 nM HPK1 (Invitrogen), in assay buffer (Carna Biosciences; pH 7.4). Test compounds were titrated in ten point curves (top final assay concentration 3 μM), and preincubated with enzyme/substrate mix for 30 min prior to initiation of the reaction by addition of ATP (1 mM final concentration) and substrate (1 μM final concentration; Carna Biosciences) diluted in assay buffer supplemented by MgCl2 (final assay concentration of 5 mM). Following 60 min incubation at RT, the reaction was terminated by addition of 60 μl/well termination buffer (Carna Biosciences) and signal determination using a Caliper EZ Reader (Perkin Elmer, UK).
The compound numbers correspond to the compound numbers in Table 1. Compounds having an activity designated as “A” provided an IC50≤100 nM; compounds having an activity designated as “B” provided an IC50>100 nM and ≤1,000 nM; compounds having an activity designated as “C” provided an IC50>1,000 nM.
The IC50 is the concentration at which inhibition is half-maximal. Turning to `O=C(c1ccc(-c2cc(Nc3ccc(N4CCC(O)CC4)cn3)c3c(=O)[nH]ccc3n2)c(F)c1)N1CCCCC1CO` (stereo not drawn) [I-141, 2-[2-fluoro-4-[2-(hydroxy-methyl)piperidine-1-carbonyl]phenyl]-4-[[5-(4-hydroxy-1-piperidyl)-2-pyridyl]amino]-6H-1,6-naphthyridin-5-one], the IC50 was > 1000 nM.
In the case of `O=c1[nH]ccc2nc(N3CCC4(CCCNC4)CC3)cc(Nc3ccc(N4CCC(O)CC4)cn3)c12` [I-239, 2-(2,9-diazaspiro [5.5]undecan-9-yl)-4-[[5-(4-hydroxy-1-piperidyl)-2-pyridyl]amino]-6H-1,6-naphthyridin-5-one] it was 100 to 1000 nM; in that of `N#Cc1ccc(F)c(-c2cc(Nc3ccc(N4CCC(O)CC4)cn3)c3c(=O)[nH]ccc3n2)c1` [I-45, 4-fluoro-3-[4-[[5-(4-hydroxy-1-piperidyl)-2-pyridyl]amino]-5-oxo-6H-1,6-naphthyridin-2-yl] benzonitrile], ≤ 100 nM; in that of `CCc1c[nH]c(=O)c2c(Nc3ccc(N4CCC(O)CC4)cn3)cc(-c3c(F)cccc3F)nc12` [I-49, 2-(2,6-difluorophenyl)-8-ethyl-4-((5-(4-hydroxypiperidin-1-yl)pyridin-2-yl)amino)-1,6-naphthyridin-5(6H)-one], 100 to 1000 nM.
The result for `COc1cc(-c2cc(Nc3ccc(N4CCNCC4)cn3)c3c(=O)[nH]ccc3n2)c(F)cc1C(=O)N1CCCCC1` [I-157] reads > 1000 nM.
In the case of `CC(C)c1cc(Nc2ccc(N3CCC(O)CC3)cn2)c2c(=O)[nH]cnc2n1` [I-59, 5-[[5-(4-hydroxy-1-piperidyl)-2-pyridyl]amino]-7-isopropyl-3H-pyrido[2,3-d]pyrimidin-4-one], the IC50 lay within 100 to 1000 nM.
The result for `O=c1[nH]ccc2nc(-c3cc4cc[nH]c4cc3F)cc(Nc3ccc(N4CCC(O)CC4)cn3)c12` [I-107, 2-(6-fluoro-1H-indol-5-yl)-4-[[5-(4-hydroxy-1-piperidyl)-2-pyridyl]amino]-6H-1,6-naphthyridin-5-one] reads 100 to 1000 nM; that for `Cc1cc(F)c(-c2cc(Nc3ccc(N4CCC(O)CC4)cn3)c3c(=O)[nH]ccc3n2)cc1C(=O)N1CCCCC1` [I-167, 2-[2-fluoro-4-methyl-5-(piperidine-1-carbonyl)phenyl]-4-[[5-(4-hydroxy-1-piperidyl)-2-pyridyl]amino]-6H-1,6-naphthyridin-5-one], ≤ 100 nM.
In the case of `O=C(Nc1ccc(-c2cc(Nc3ccc(C4CCOC4)cn3)c3c(=O)[nH]ccc3n2)c(F)c1)C1CCCCC1` (single isomer, unassigned) [I-267, N-[3-fluoro-4-[5-oxo-4-[(5-THF-3-yl-2-pyridyl)amino]-6H-1,6-naphthyridin-2-yl]phenyl] cyclohexane carboxamide] it was ≤ 100 nM; in that of `COc1cc(-c2cc(Nc3ccc(N4CCC(O)CC4)cn3)c3c(=O)[nH]ccc3n2)c(F)cc1CN(C)C` [I-215, 2-(4-((Dimethylamino)methyl)-2-fluoro-5-methoxyphenyl)-4-((5-(4-hydroxypiperidin-1-yl)pyridin-2-yl)amino)-1,6-naphthyridin-5(6H)-one], 100 to 1000 nM.
The result for `CC(C)c1cc(Nc2ccc(S(=O)(=O)N3CCCCC3)cn2)c2c(=O)[nH]ccc2n1` [I-31, 2-isopropyl-4-[[5-(1-piperidyl-sulfonyl)-2-pyridyl]amino]-6H-1,6-naphthyridin-5-one] reads 100 to 1000 nM; that for `O=C(Nc1ccc(-c2cc(Nc3ccc(N4CCC(O)CC4)cn3)c3c(=O)[nH]ccc3n2)c(F)c1)[C@@H]1C[C@H]2CC[C@@H]1C2` (racemic) [I-266, (1R,2R,4S)-N-[3-fluoro-4-[4-[[5-(4-hydroxy-1-piperidyl)-2-pyridyl]amino]-5-oxo-6H-1,6-naphthyridin-2-yl]phenyl] norbornane-2-carboxamide], ≤ 100 nM; that for `CCNC(=O)c1ccc(Nc2nc(C(C)C)nc3cc[nH]c(=O)c23)cc1` [I-10, N-ethyl-4-[(2-isopropyl-5-oxo-6H-pyrido[4,3-d]pyrimidin-4-yl)amino]benzamide], 100 to 1000 nM.
On to `O=c1[nH]cnc2nc(-c3c(F)cccc3F)cc(Nc3ccc(N4CCC(O)CC4)cn3)c12` [I-11, 7-(2,6-difluorophenyl)-5-[[5-(4-hydroxy-1-piperidyl)-2-pyridyl]amino]-3H-pyrido[2,3-d]pyrimidin-4-one], for which the IC50 fell in the range of 100 to 1000 nM.
As to `Cc1c[nH]c(=O)c2c(Nc3ccc(N4CCC(O)CC4)cn3)cc(C(C)C)nc12` [I-89, 4-[[5-(4-hydroxy-1-piperidyl)-2-pyridyl]amino]-2-isopropyl-8-methyl-6H-1,6-naphthyridin-5-one], the IC50 is > 1000 nM.
Turning to `CC(=O)c1cc(Nc2ccc(N3CCC(O)CC3)cn2)c2c(=O)[nH]ccc2n1` [I-47, 2-acetyl-4-[[5-(4-hydroxy-1-piperidyl)-2-pyridyl]amino]-6H-1,6-naphthyridin-5-one], the IC50 was ≤ 100 nM.
In the case of `CC(O)(c1ccc(F)c(-c2cc(Nc3ccc(N4CCC(O)CC4)cn3)c3c(=O)[nH]ccc3n2)c1)C(F)(F)F` (single isomer, unassigned) [I-274, 2-(2-fluoro-5-(1,1,1-hydroxy-propan-2-yl)phenyl)-4-((5-(4-hydroxy-piperidin-1-y)pyridin-2-yl)amino)-1,6-naphthyridin-5(6H)-one] it was ≤ 100 nM; in that of `COc1cc(-c2cc(Nc3ccc(N4CCC(O)CC4)cn3)c3c(=O)[nH]ccc3n2)c(F)cc1C(=O)N1CCCC1` [I-206, 2-[2-fluoro-5-methoxy-4-(pyrrolidine-1-carbonyl)phenyl]-4-[[5-(4-hydroxy-1-piperidyl)-2-pyridyl]amino]-6H-naphthyridin-5-one], ≤ 100 nM; in that of `O=c1[nH]ccc2cc(-c3c(F)cccc3F)nc(Nc3ccc(N4CCC(O)CC4)cn3)c12` [I-8, 6-(2,6-difluoro-phenyl)-8-[[5-(4-hydroxy-1-piperidyl)-2-pyridyl]amino]-2H-2,7-naphthyridin-1-one], 100 to 1000 nM.
With `CN(C)Cc1ccc(F)c(-c2cc(Nc3ccc(N4CCC(O)CC4)cn3)c3c(=O)[nH]ccc3n2)c1` [I-117, 2-[5-[(dimethyl-amino)methyl]-2-fluoro-phenyl]-4-[[5-(4-hydroxy-1-piperidyl)-2-pyridyl]amino]-6H-1,6-naphthyridin-5-one], the IC50 fell in the range of 100 to 1000 nM.
In the case of `CNCc1ccc(-c2cc(Nc3ccc(N4CCC(O)CC4)cn3)c3c(=O)[nH]ccc3n2)c(F)c1` [I-218, 2-[2-fluoro-4-(methyl-amino-methyl)phenyl]-4-[[5-(4-hydroxy-1-piperidyl)-2-pyridyl]amino]-6H-naphthyridin-5-one], the concentration for half-maximal inhibition (IC50) was ≤ 100 nM.
In the case of `O=c1[nH]ccc2nc(C3CC3)cc(Nc3ccc(N4CCC(O)CC4)cn3)c12` [I-17, 2-cyclopropyl-4-[[5-(4-hydroxy-1-piperidyl)-2-pyridyl]amino]-6H-1,6-naphthyridin-5-one] it was 100 to 1000 nM; in that of `N#CC1CCN(C(=O)c2ccc(-c3cc(Nc4ccc(N5CCC(O)CC5)cn4)c4c(=O)[nH]ccc4n3)c(F)c2)CC1` [I-132, 1-[3-fluoro-4-[4-[[5-(4-hydroxy-1-piperidyl)-2-pyridyl]amino]-5-oxo-6H-1,6-naphthyridin-2-yl]benzoyl] piperidine-4-carbonitrile], 100 to 1000 nM.
In the case of `Cc1cccc(-c2cc(Nc3ccc(N4CCC(O)CC4)cn3)c3c(=O)[nH]ccc3n2)c1F` [I-68, 2-(2-fluoro-3-methyl-phenyl)-4-[[5-(4-hydroxy-1-piperidyl)-2-pyridyl]amino]-6H-1,6-naphthyridin-5-one] it was 100 to 1000 nM.
The result for `CN1CCN(c2ccc(Nc3cc(-c4ccc(C(=O)N5CC6C(C5)C6(F)F)cc4F)nc4cc[nH]c(=O)c34)nc2)CC1` (stereo not drawn) [I-279, 2-[4-(6,6-difluoro-3-azabicyclo [3.1.0]hexane-3-carbonyl)-2-fluoro-phenyl]-4-[[5-(4-methyl-piperazin-1-yl)-2-pyridyl]amino]-6H-1,6-naphthyridin-5-one] reads ≤ 100 nM.
As for `CNC(=O)c1ccc(F)c(-c2cc(Nc3ccc(N4CCC(O)CC4)cn3)c3c(=O)[nH]ccc3n2)c1` [I-85, 4-fluoro-3-[4-[[5-(4-hydroxy-1-piperidyl)-2-pyridyl]amino]-5-oxo-6H-1,6-naphthyridin-2-yl]-N-methyl-benzamide], the IC50 lay in the range of 100 to 1000 nM.
In the case of `O=c1[nH]ccc2nc(N3CCCC(O)C3)cc(Nc3ccc(N4CCC(O)CC4)cn3)c12` (stereo not drawn) [I-50, 2-(3-hydroxy-1-piperidyl)-4-[[5-(4-hydroxy-1-piperidyl)-2-pyridyl]amino]-6H-1,6-naphthyridin-5-one], the IC50 is 100 to 1000 nM.
In the case of `CC(O)c1cc(Nc2ccc(N3CCC(O)CC3)cn2)c2c(=O)[nH]ccc2n1` (stereo not drawn) [I-37, 2-(1-hydroxyethyl)-4-[[5-(4-hydroxy-1-piperidyl)-2-pyridyl]amino]-6H-1,6-naphthyridin-5-one] it was 100 to 1000 nM; in that of `CC(=O)N1CCCC1c1ccc(F)c(-c2cc(Nc3ccc(N4CCC(O)CC4)cn3)c3c(=O)[nH]ccc3n2)c1` (stereo not drawn) [I-248, 2-[5-(1-acetyl-pyrrolidin-2-yl)-2-fluoro-phenyl]-4-[[5-(4-hydroxy-1-piperidyl)-2-pyridyl]amino]-6H-1,6-naphthyridin-5-one], ≤ 100 nM; in that of `COC(=O)c1ccc(-c2cc(Nc3ccc(N4CCC(O)CC4)cn3)c3c(=O)[nH]ccc3n2)c(F)c1` [I-125, Methyl 3-fluoro-4-[4-[[5-(4-hydroxy-1-piperidyl)-2-pyridyl]amino]-5-oxo-6H-1,6-naphthyridin-2-yl]benzoate], ≤ 100 nM.

The values above are taken from patent US12252488B2 (Nimbus Saturn, Inc., priority 2021, dated 2025).
